Activity calls are given as the source filed them. No cut-off for these calls is given here.
Experiments:
Cannabinoid receptor 2 [1] = biological target: T1, Cannabinoid receptor 2 (Homo sapiens, UniProt P34972); assay: Antagonist activity at human CB2 receptor expressed in CHO cells assessed as inhibition of CP55940-induced Ca2+ flux at 10 uM preincubated for 10 mins followed by agonist addition by Fluor-4 AM dye based assay; assay type: functional, cell-based
[2] = biological target: T2, Cannabinoid receptor 1 (CB1) (Homo sapiens, UniProt P21554); assay: Antagonist activity at human CB1 receptor expressed in CHO cells assessed as inhibition of CP55940-induced Ca2+ flux at 10 uM preincubated for 10 mins followed by agonist addition by Fluor-4 AM dye based assay; assay type: cell-based; conditions: CHO cells expressing human CB1 receptor
T2 sequence (P21554 whole entry): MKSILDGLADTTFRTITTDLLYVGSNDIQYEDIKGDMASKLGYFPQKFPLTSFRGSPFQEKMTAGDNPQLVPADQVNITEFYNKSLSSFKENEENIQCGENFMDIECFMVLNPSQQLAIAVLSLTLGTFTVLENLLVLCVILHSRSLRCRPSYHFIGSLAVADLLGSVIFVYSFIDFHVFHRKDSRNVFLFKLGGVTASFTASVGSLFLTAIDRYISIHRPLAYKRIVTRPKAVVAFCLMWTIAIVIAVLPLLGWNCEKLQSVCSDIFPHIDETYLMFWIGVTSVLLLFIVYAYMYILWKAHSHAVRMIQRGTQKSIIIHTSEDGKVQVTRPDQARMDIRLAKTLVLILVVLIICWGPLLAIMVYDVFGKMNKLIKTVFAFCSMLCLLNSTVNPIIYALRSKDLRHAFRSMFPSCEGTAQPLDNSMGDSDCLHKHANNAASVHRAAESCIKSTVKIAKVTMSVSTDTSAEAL

Cannabinoid receptor 2 [3] = biological target: T1, Cannabinoid receptor 2; assay: Agonist activity at human CB2 receptor expressed in CHO cells assessed as induction of Ca2+ flux after 10 mins by Fluor-4 AM dye based assay; assay type: functional, cell-based
Cannabinoid receptor 1 [4] = biological target: T3, Cannabinoid receptor 1 (Homo sapiens, UniProt P21554); assay: Agonist activity at human CB1 receptor expressed in CHO cells assessed as induction of Ca2+ flux at 10 uM after 10 mins by Fluor-4 AM dye based assay; assay type: cell-based
T3 sequence (P21554 whole entry): as above

Cannabinoid receptor 2 [5] = biological target: T1, Cannabinoid receptor 2; assay: Agonist activity at human CB2 receptor expressed in CHO cells assessed as induction of Ca2+ flux after 10 mins by Fluor-4 AM dye based assay relative to CP55940; assay type: functional, cell-based
[6] = biological target: T2, Cannabinoid receptor 1 (CB1); assay: Agonist activity at human CB1 receptor expressed in CHO cells assessed as induction of Ca2+ flux after 10 mins by Fluor-4 AM dye based assay relative to CP55940; assay type: cell-based; conditions: CHO cells expressing human CB1 receptor
Cannabinoid receptor 1 [7] = biological target: T3, Cannabinoid receptor 1; assay: Agonist activity at human CB1 receptor expressed in CHO cells assessed as induction of Ca2+ flux after 10 mins by Fluor-4 AM dye based assay; assay type: cell-based
Cannabinoid receptor 2 [8] = biological target: T1, Cannabinoid receptor 2; assay: Agonist activity at human CB2 receptor expressed in CHO cells assessed as induction of Ca2+ flux at 10 uM after 10 mins by Fluor-4 AM dye based assay; assay type: functional, cell-based
Cannabinoid receptor 2 [9] = biological target: T1, Cannabinoid receptor 2; assay: Antagonist activity at human CB2 receptor expressed in CHO cells assessed as inhibition of CP55940-induced Ca2+ flux preincubated for 10 mins followed by agonist addition by Fluor-4 AM dye based assay; assay type: functional, cell-based
Cannabinoid receptor 1 [10] = biological target: Cannabinoid receptor 1 (Rattus norvegicus, UniProt P20272); assay: Agonist activity at rat CB1 receptor expressed in mouse AtT20 cells by FLIPR membrane potential assay; assay type: cell-based
Cannabinoid receptor 1 (Rattus norvegicus, UniProt P20272), sequence (P20272 whole entry): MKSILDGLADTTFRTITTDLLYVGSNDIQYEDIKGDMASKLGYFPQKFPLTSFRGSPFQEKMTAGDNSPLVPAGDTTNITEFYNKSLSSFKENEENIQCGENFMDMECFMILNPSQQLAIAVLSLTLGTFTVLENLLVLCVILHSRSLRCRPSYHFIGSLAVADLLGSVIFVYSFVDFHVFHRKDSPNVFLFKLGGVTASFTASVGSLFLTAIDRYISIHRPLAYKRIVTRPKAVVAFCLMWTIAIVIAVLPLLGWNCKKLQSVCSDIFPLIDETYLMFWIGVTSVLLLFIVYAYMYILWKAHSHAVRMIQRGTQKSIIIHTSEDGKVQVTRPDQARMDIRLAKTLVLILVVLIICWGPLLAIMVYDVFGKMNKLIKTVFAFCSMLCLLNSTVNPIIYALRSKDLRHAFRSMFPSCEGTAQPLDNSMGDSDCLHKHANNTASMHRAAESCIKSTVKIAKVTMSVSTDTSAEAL

Cannabinoid receptor 2 [11] = biological target: T1, Cannabinoid receptor 2; assay: Agonist activity at human N-terminal HA-tagged CB2 receptor expressed in mouse AtT20 cells by FLIPR membrane potential assay; assay type: cell-based

T1 sequence (P34972 whole entry): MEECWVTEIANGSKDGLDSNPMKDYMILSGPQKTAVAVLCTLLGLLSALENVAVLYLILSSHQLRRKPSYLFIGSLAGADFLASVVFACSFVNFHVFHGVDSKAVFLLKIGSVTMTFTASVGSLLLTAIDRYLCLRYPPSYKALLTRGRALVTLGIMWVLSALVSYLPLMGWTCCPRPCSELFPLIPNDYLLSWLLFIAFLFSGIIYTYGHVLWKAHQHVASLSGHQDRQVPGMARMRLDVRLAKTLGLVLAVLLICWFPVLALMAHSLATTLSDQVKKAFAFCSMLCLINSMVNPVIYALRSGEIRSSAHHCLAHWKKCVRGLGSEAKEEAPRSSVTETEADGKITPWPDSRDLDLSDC

Compound | inhibition (Cannabinoid receptor 2 [1]) [%] | inhibition at 10 min, 10 µM [2] [%] | EC50 (Cannabinoid receptor 2 [3]) [nM] | Activity (Cannabinoid receptor 1 [4]) [%] | Emax (Cannabinoid receptor 2 [5]) | Emax at 10 min [6] [%] | EC50 (Cannabinoid receptor 1 [7]) [µM] | Activity (Cannabinoid receptor 2 [8]) [%] | IC50 (Cannabinoid receptor 2 [9]) [nM] | EC50 (Cannabinoid receptor 1 [10]) [nM] | EC50 (Cannabinoid receptor 2 [11]) [nM]
N#CCCCCn1c(C(=O)NC23CC4CC(CC(C4)C2)C3)cc2ccccc21 | < 50 | < 50 | 75 | < 50 | 41.7% | – | – | – | – | – | –
O=C(O)CCCCn1c(C(=O)NC23CC4CC(CC(C4)C2)C3)cc2ccccc21 | < 50 | < 50 | 7130 | < 50 | 43.3% | – | – | – | – | – | –
O=C(NC12CC3CC(CC(C3)C1)C2)c1cn(CC2CCOCC2)c2ccccc12 | < 50 | < 50 | 38 | – | 76.7% | 133 | 0.084 | – | – | – | –
O=C(NC12CC3CC(CC(C3)C1)C2)c1c[nH]c2ccccc12 | < 50 | < 50 | 630 | < 50 | 75% | – | – | – | – | – | –
CC(C)(C)NC(=O)c1cc2ccccc2n1CCCCCO | < 50 | < 50 | 430 | < 50 | 51.7% | – | – | – | – | – | –
O=C(NC12CC3CC(CC(C3)C1)C2)c1cc2ccccc2n1CCCCCO | < 50 | < 50 | 100 | < 50 | 70% | – | – | – | – | – | –
O=C(NC12CC3CC(CC(C3)C1)C2)c1cc2ccccc2[nH]1 | < 50 | < 50 | 980 | < 50 | 66.7% | – | – | – | – | – | –
O=C(NC12CC3CC(CC(C3)C1)C2)c1cc2ccccc2n1CCCO | < 50 | < 50 | 160 | < 50 | 86.7% | – | – | – | – | – | –
COc1ccc2c(c1)c(C(=O)NC13CC4CC(CC(C4)C1)C3)cn2CCN1CCOCC1 | < 50 | < 50 | – | < 50 | – | – | – | < 50 | – | – | –
O=C(NC12CC3CC(CC(C3)C1)C2)c1c(F)c2ccccc2n1CCCCCO | < 50 | < 50 | 610 | < 50 | 60% | – | – | – | – | – | –
O=C(NC12CC3CC(CC(C3)C1)C2)c1cn(CCN2CCOCC2)c2ccccc12 | < 50 | < 50 | 59 | – | 56.7% | 75 | 3.3 | – | > 100000 | – | –
CCCCCn1c(C(=O)NC23CC4CC(CC(C4)C2)C3)cc2ccccc21 | < 50 | < 50 | 720 | < 50 | 53.3% | – | – | – | – | – | –
CCCCCn1cc(C(=O)C23CC4CC(CC(C4)C2)C3)c2ccccc21 | – | – | – | – | – | – | – | – | – | 35 to 40 | 29 to 89
O=C(NC12CC3CC(CC(C3)C1)C2)c1cc2ccccc2n1CCCCC(F)F | < 50 | < 50 | 92 | < 50 | 60% | – | – | – | – | – | –
COc1cccc2c1c(C(=O)NC13CC4CC(CC(C4)C1)C3)cn2CCN1CCOCC1 | < 50 | < 50 | – | < 50 | – | – | – | < 50 | – | – | –
C[S+]([O-])c1cccc2c(C(=O)NC34CC5CC(CC(C5)C3)C4)cn(CCN3CCOCC3)c12 (stereo unspecified) | < 50 | < 50 | – | < 50 | – | – | – | < 50 | – | – | –
N#CCCCn1cc(C(=O)NC23CC4CC(CC(C4)C2)C3)c2ccccc21 | < 50 | < 50 | 31 | – | 70% | 105 | 0.63 | – | – | – | –
N=C(N)NCCCCCn1c(C(=O)NC23CC4CC(CC(C4)C2)C3)cc2ccccc21 | < 50 | < 50 | – | < 50 | – | – | – | < 50 | – | – | –
CSc1cccc2c(C(=O)NC34CC5CC(CC(C5)C3)C4)cn(CCN3CCOCC3)c12 | – | < 50 | > 100000 | < 50 | – | – | – | < 50 | 28 | – | –
O=CCCCCn1c(C(=O)NC23CC4CC(CC(C4)C2)C3)cc2ccccc21 | < 50 | < 50 | 180 | < 50 | 73.3% | – | – | – | – | – | –
N#CCCCn1c(C(=O)NC23CC4CC(CC(C4)C2)C3)cc2ccccc21 | < 50 | < 50 | 270 | < 50 | 61.7% | – | – | – | – | – | –

Compound | inhibition (Cannabinoid receptor 2 [1]) [%] | inhibition at 10 min, 10 µM [2] [%] | EC50 (Cannabinoid receptor 2 [3]) [nM] | Activity (Cannabinoid receptor 1 [4]) [%] | Emax (Cannabinoid receptor 2 [5]) | Emax at 10 min [6] [%] | EC50 (Cannabinoid receptor 1 [7]) [µM] | Activity (Cannabinoid receptor 2 [8]) [%] | IC50 (Cannabinoid receptor 2 [9]) [nM] | EC50 (Cannabinoid receptor 1 [10]) [nM] | EC50 (Cannabinoid receptor 2 [11]) [nM]
NCCCCCn1c(C(=O)NC23CC4CC(CC(C4)C2)C3)cc2ccccc21 | < 50 | < 50 | 8600 | < 50 | 93.3% | – | – | – | – | – | –
O=C(NC12CC3CC(CC(C3)C1)C2)c1cn(CCCCCO)c2ccccc12 | < 50 | < 50 | 62 | – | 63.3% | 76.7 | 4.1 | – | – | – | –
O=C(NC12CC3CC(CC(C3)C1)C2)c1c(F)c2ccccc2n1CCCCO | < 50 | < 50 | 410 | < 50 | 46.7% | – | – | – | – | – | –
O=C(NC1CCCC1)c1cc2ccccc2n1CCCCCO | < 50 | < 50 | – | < 50 | – | – | – | < 50 | – | – | –
Cc1cccc2c(C(=O)NC34CC5CC(CC(C5)C3)C4)c[nH]c12 | < 50 | < 50 | 500 | < 50 | 60% | – | – | – | – | – | –
COCCCCCn1cc(C(=O)NC23CC4CC(CC(C4)C2)C3)c2ccccc21 | < 50 | < 50 | 82 | < 50 | 70% | – | – | – | – | – | –
N#CCCn1cc(C(=O)NC23CC4CC(CC(C4)C2)C3)c2ccccc21 | < 50 | < 50 | 180 | < 50 | 73.3% | – | – | – | – | – | –
CCCCCn1cc(C(=O)CC23CC4CC(CC(C4)C2)C3)c2ccccc21 | – | – | – | – | – | – | – | – | – | 35 to 40 | 29 to 89
O=C(NC12CC3CC(CC(C3)C1)C2)c1cc2ccccc2n1CC1CCOCC1 | < 50 | < 50 | 410 | < 50 | 41.7% | – | – | – | – | – | –
Cc1cccc2c(C(=O)NC34CC5CC(CC(C5)C3)C4)cn(CCN3CCOCC3)c12 | < 50 | < 50 | – | – | inactive | 63.3 | 6.7 | < 50 | – | – | –
N#CCCCCn1c(C(=O)Nc2ccccc2)cc2ccccc21 | < 50 | < 50 | 200 | < 50 | 48.3% | – | – | – | – | – | –
O=C(NC12CC3CC(CC(C3)C1)C2)c1[nH]c2ccccc2c1F | < 50 | < 50 | 3800 | < 50 | 83.3% | – | – | – | – | – | –
COc1cccc2c(C(=O)NC34CC5CC(CC(C5)C3)C4)cn(CCN3CCOCC3)c12 | – | < 50 | > 100000 | < 50 | – | – | – | < 50 | 16 | – | –
O=C(NC12CC3CC(CC(C3)C1)C2)c1cc2ccccc2n1CCN1CCOC1=O | < 50 | < 50 | 220 | < 50 | 66.7% | – | – | – | – | – | –
O=C(NC12CC3CC(CC(C3)C1)C2)c1cn(CCCCO)c2ccccc12 | < 50 | < 50 | 160 | – | 68.3% | 58.3 | 13 | – | – | – | –
N#CCCn1c(C(=O)NC23CC4CC(CC(C4)C2)C3)cc2ccccc21 | < 50 | < 50 | 150 | < 50 | 93.3% | – | – | – | – | – | –
O=C(NC1CCCCC1)c1cc2ccccc2n1CCCCCO | < 50 | < 50 | 420 | < 50 | 50% | – | – | – | – | – | –
O=C(NC12CC3CC(CC(C3)C1)C2)c1cc2ccccc2n1CCCC(F)(F)F | < 50 | < 50 | 490 | < 50 | 63.3% | – | – | – | – | – | –
O=C(NC12CC3CC(CC(C3)C1)C2)c1cc2ccccc2n1CCCCCF | < 50 | < 50 | 140 | < 50 | 53.3% | – | – | – | – | – | –
N#CCn1cc(C(=O)NC23CC4CC(CC(C4)C2)C3)c2ccccc21 | < 50 | < 50 | 410 | < 50 | 66.3% | – | – | – | – | – | –
NCCCCn1c(C(=O)NC23CC4CC(CC(C4)C2)C3)cc2ccccc21 | < 50 | < 50 | 4700 | < 50 | 86.7% | – | – | – | – | – | –

Source: ChEMBL document CHEMBL4038324, “Amidoalkylindoles as Potent and Selective Cannabinoid Type 2 Receptor Agonists with in Vivo Efficacy in a Mouse Model of Multiple Sclerosis” (J Med Chem, 2017)
